Assay results as given in patent US20220016115A1, “USP19 INHIBITORS FOR USE IN THERAPY” (ALMAC DISCOVERY LIMITED, priority 2018, published 2022).
pIC50: −log10 of the molar value.

biological target: T1, USP19 (Homo sapiens, UniProt O94966); test: USP19 fluorescence polarisation (FP) homogeneous assay; type: biochemical; parameters: Full-length USP19 was purchased from Boston Biochem (E-576); purchased Boston Biochem E-576; details: Ubiquitin-Lys-TAMRA substrate, full-length USP19 2.5 nM, average of at least two duplicate experiments
T1 sequence (O94966 1-1318): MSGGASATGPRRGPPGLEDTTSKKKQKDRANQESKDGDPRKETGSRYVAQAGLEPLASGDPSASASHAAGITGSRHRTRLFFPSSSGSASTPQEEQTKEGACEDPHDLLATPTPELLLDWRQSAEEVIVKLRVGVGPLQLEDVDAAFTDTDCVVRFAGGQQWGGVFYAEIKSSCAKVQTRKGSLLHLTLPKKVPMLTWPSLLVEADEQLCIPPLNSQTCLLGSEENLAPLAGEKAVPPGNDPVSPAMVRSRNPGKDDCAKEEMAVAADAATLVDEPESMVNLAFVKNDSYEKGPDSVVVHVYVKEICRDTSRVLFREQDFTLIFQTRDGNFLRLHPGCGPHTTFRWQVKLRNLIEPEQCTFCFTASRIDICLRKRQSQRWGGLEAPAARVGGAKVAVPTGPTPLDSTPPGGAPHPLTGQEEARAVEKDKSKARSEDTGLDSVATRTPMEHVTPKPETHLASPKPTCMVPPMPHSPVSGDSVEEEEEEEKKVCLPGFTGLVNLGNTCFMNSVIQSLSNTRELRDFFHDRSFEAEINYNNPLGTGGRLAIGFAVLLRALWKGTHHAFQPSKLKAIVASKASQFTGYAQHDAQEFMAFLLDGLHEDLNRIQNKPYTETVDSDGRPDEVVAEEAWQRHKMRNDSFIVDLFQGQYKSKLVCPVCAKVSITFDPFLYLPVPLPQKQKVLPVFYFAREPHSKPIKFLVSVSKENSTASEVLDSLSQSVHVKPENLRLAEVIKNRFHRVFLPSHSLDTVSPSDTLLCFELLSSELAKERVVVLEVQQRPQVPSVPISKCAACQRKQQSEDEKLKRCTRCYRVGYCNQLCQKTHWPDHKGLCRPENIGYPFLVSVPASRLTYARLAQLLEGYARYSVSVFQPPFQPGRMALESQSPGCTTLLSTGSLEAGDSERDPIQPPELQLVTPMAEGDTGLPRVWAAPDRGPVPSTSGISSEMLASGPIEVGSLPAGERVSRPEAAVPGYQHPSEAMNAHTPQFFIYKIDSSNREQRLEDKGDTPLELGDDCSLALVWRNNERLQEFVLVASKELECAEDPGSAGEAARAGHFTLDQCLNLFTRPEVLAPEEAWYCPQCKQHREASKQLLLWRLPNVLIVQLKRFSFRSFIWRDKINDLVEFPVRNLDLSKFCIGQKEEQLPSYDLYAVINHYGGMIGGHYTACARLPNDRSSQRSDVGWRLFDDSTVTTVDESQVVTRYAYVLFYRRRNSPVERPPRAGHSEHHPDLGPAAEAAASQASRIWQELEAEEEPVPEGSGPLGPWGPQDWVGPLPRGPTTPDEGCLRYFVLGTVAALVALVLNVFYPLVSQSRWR
How it was run: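 Inhibitors serially diluted in buffer (200 μM to 2 μM, 8-18 points) and preincubated 30 min at RT before starting with 500 nM Ub substrate.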

SMILES | pIC50
C[C@H](CC1CCCCC1)C(=O)N1CC[C@@](O)(Cn2cc(C(=O)O)c(-c3ccccc3)cc2=O)C2(CCCC2)C1 [Example 253, 1-(((S)-7-((R)-3-Cyclohexyl-2-methylpropanoyl)-10-hydroxy-7-azaspiro[4.5]decan-10-yl)methyl)-6-oxo-4-phenyl-1,6-dihydropyridine-3-carboxylic acid] | > 6.30
O=C([C@@H]1CCNC[C@H]1c1ccccc1)N1CCC(O)(Cn2cnc(-c3ccccc3)cc2=O)C2(CCCC2)C1 (stereo partly drawn) [Example 254, 3-((10-Hydroxy-7-((3R,4R)-3-phenylpiperidine-4-carbonyl)-7-azaspiro[4.5]decan-10-yl)methyl)-6-phenylpyrimidin-4(3H)-one] | > 6.30
C[C@H](CC(F)(F)F)C(=O)N1CC[C@@](O)(Cn2cnc(-c3ccccc3)cc2=O)C2(CCCC2)C1 [Example 255, 3-(((S)-10-Hydroxy-7-((R)-4,4,4-trifluoro-2-methylbutanoyl)-7-azaspiro[4.5]decan-10-yl)methyl)-6-phenylpyrimidin-4(3H)-one] | > 6.30

Second part, the compound after the results:

pIC50 | SMILES
> 6.30 | C[C@H](CC(F)(F)F)C(=O)N1CC[C@@](O)(Cn2cnc(-c3ccccc3F)cc2=O)C2(CCCC2)C1 [Example 256, 6-(2-Fluorophenyl)-3-(((S)-10-hydroxy-7-((R)-4,4,4-trifluoro-2-methylbutanoyl)-7-azaspiro[4.5]decan-10-yl)methyl)pyrimidin-4(3H)-one]
> 6.30 | C[C@H](CC(F)(F)F)C(=O)N1CC[C@@](O)(Cn2cnc(-c3cccc(F)c3)cc2=O)C2(CCCC2)C1 [Example 257, 6-(3-Fluorophenyl)-3-(((S)-10-hydroxy-7-((R)-4,4,4-trifluoro-2-methylbutanoyl)-7-azaspiro[4.5]decan-10-yl)methyl)pyrimidin-4(3H)-one]
> 6.30 | C[C@H](CC(C)(F)F)C(=O)N1CC[C@@](O)(Cn2cnc(-c3ccccc3)cc2=O)C2(CCCC2)C1 [Example 258, 3-(((S)-7-((R)-4,4-Difluoro-2-methylpentanoyl)-10-hydroxy-7-azaspiro[4.5]decan-10-yl)methyl)-6-phenylpyrimidin-4(3H)-one]
